Source: patent publication US11478505B2, “Compositions of ixabepilone” (R-Pharm US Operating LLC, priority 2020, dated 2022)

Experiments:
[1] = tested on: A549 Human Lung Carcinoma; assay: cytotoxicity, cell viability count after 96 h of treatment; assay type: cell-based; settings: 20 nM, trypan blue
Method: (§1) After 96 hours of treatment, cells were counted for viability.
(§2) Materials and Equipment: Eagle's Minimum Essential Media (ATCC No. 30-2003); F-12K Media (ATCC No. 30-2008); Fetal Bovine Serum (ATCC No. 30-2020); Penicillin/Streptomycin (Thermo Fisher No. 15-140-122); Human Recombinant Insulin 0.01 mg/mL (Sigma No. 19278); Trypsin (ATCC No. 25-200-072); Phosphate Buffered Saline (Corning from Thermo Fisher No. 21040CM); Hemocytometer (Hausser from Fischer No. 02-671-6); Trypan blue (Gibco No. 15250061); p100 tissue culture dishes (Falcon-Corning No. 08-772E). Ixabepilone (Lot 3L7304N) was provided by R-Pharm US. […] Saline control was phosphate-buffered 150 mM NaCl solution.
(§3) Cells were rapidly thawed in a water bath at 37° C. and resuspended in appropriate media before being transferred to 60 mm or 100 mm tissue culture dishes. A549 cells were maintained in F12-K media, supplemented with 10% fetal bovine serum, and 1% penicillin/streptomycin. MCF7 cells were maintained in Eagle's Minimum Essential media, supplemented with 10% fetal bovine serum, 1% penicillin/streptomycin, and 0.01 mg/mL insulin. All cells were passaged at least three times before treatment. […] Saline was administered at the equivalent volume used for the ixabepilone treatment for each respective cell line. At 96 h, cells were trypsinized and harvested and counted with trypan blue on a hemocytometer.

[2] = tested on: MCF7 Human Breast Adenocarcinoma; assay: as above; assay type: cell-based; settings: 40 nM, trypan blue
Method: as §1, §2, §3

[3] = cited from earlier work

In the case of C/C(=C\c1csc(C)n1)[C@@H]1C[C@@H]2O[C@]2(C)CCC[C@H](C)[C@H](O)[C@@H](C)C(=O)C(C)(C)[C@@H](O)CC(=O)N1 [ixabepilone, (1S,3S,7S,10R,11S,12S,16R)-7,11dihydroxy-8,8,10,12,16-pentamethyl-3-[(1E)-1-methyl-2-(2-methyl-4-thiazolyl)ethenyl]17-oxa-4-azabicyclo[14.1.0] heptadecane-5,9-dione], the “average cell viability count” value [1] is listed as 106×10^4, the “average cell viability count” value [2] is listed as 70×10^4 and the tolerability ([3]; doses of 0.1, 1.0 or 2.0 mg/kg, weekly IV, 5 doses) is listed as “generally well tolerated”. The “no observed adverse effect level (NOAEL)” value ([3]; weekly intravenous dosing for one month (5 doses)) was 0.1 mg/kg.
